Values of other authors in PMC8854719, “Phase 1A/1B dose-escalation and -expansion study to evaluate the safety, pharmacokinetics, food effects and antitumor activity of pamiparib in advanced solid tumours” (British Journal of Cancer, 2021).
Like-named read-outs stand apart in the source and are kept apart here.

What was measured:
ovarian cancer = conditions: Phase 2 studies, BRCAmut ovarian cancer after prior platinum-based chemotherapy; cited from earlier work
[1] = cited from earlier work
[2] = other monotherapy studies in advanced cancer (rucaparib: anaemia/decreased haemoglobin)
[3] = separate Phase 3 trials in ovarian cancer

Row | Compound | ORR (ovarian cancer) [%] | Anaemia, Grade ≥3 [1, 2] [%] | Anaemia, Grade ≥3 [1, 3] [%] | Anaemia, any Grade [1, 3] [%]
1 | CNCc1ccc(-c2[nH]c3cc(F)cc4c3c2CCNC4=O)cc1 [rucaparib] | 53.8 | 24.9 | 19 | 37
2 | NC(=O)c1cccc2cn(-c3ccc([C@@H]4CCCNC4)cc3)nc12 [niraparib] | 28.0 | 24 | 25 | 50
3 | O=C(c1cc(Cc2n[nH]c(=O)c3ccccc23)ccc1F)N1CCN(C(=O)C2CC2)CC1 [olaparib] | 31.1 | 17 | 19 | 44
